PMC7719179, “Small molecule inhibition of Dynamin-dependent endocytosis targets multiple niche signals and impairs leukemia stem cells” (Nature Communications, 2020)
Several values for one entry are separate records, joined by “and”; a condition that tells them apart may be missing. Identical values can stand only once.

How the values were obtained:
[1] = test system: Notch1 and Hes1 in Lmo2-transgenic DN3a thymocytes; test: Surface Notch1 and intracellular Hes1 in Lmo2^Tg DN3a thymocytes on OP9-DL1; assay type: cell-based, mouse; conditions: Lmo2-transgenic DN3a thymocytes on OP9-DL1 overnight, 0.2 μM Dynole 34-2
Method: Phosphoflow analysis was performed as previously described. Briefly, 2 × 10^6 cells stained for surface markers were subsequently resuspended into PBS 1× + 4% v/v paraformaldehyde and incubated for 10 min at 4 °C for fixation. Fixed cells were washed twice using PBS 1×, then resuspended in pre-chilled at −20 °C Perm Buffer III (BD Pharmingen) and incubated 30 min at 4 °C for permeabilization. Cells were washed twice using PBS 1× and incubated overnight at 4 °C in PBS 1× + 2% v/v fetal calf serum (FCS) with Cell Signalling purified antibodies (Genesearch Pty Ltd, Arundel QLD, Australia) against pSTAT5 (Tyr694; #9359), phospho-p38 MAPK (Thr180/Tyr182; #4511), phospho-p44/42 (Erk1/2; #9102), phospho-S6 (Ser235/236; #4856) and phospho-Akt (Ser473; #9271) or isotype control. […] Fluorescence-activated cell sorting (FACS) analysis was performed using LSRII and LSR Fortessa cytometers, following the gating strategies described in Supplementary Fig. 11. […]
For in vitro NOTCH1 signalling activation assays, cells were seeded on OP9 and OP9-DL1 stromal cell lines as described in the co-culture assays section and incubated overnight with either Dynole 34-2 or Ruxolitinib or DAPT resuspended in DMSO. […] Cells were washed twice, fixed and analysed for intracellular HES1 detection by flow cytometry as described in the FACS analysis section. […]

[2] = test system: Lmo2^Tg primary T-ALL; test: Survival (Kaplan-Meier) and leukemia growth delay in recipients of Lmo2^Tg primary T-ALL; assay type: in vivo, mouse; conditions: * = non-leukemic at endpoint
Method: Single-cell suspension of murine thymus cells were intravenously injected into sublethally irradiated (650 Rads) isogenic Ly5.1 (Cd45.1) mice. Fold expansion was calculated by dividing the absolute output number of donor-derived DN3a cells harvested at the experimental endpoint by the respective number of DN3a thymocytes injected in each recipient. Limiting dilution transplantations were performed as described, by injecting various doses (10^1 to 10^6) of thymocytes per recipient, and mice were scored positive when T-cell lineage reconstitution assessed 6 weeks after transplantation was >1%. Leukemia-propagating cell frequency was calculated by applying Poisson statistics using the ELDA: Extreme Limiting Dilution Analysis software (Walter and Eliza Hall Institute Bioinformatics, Parkville VIC, Australia)[96]. Limiting dilution transplantations were performed independently from any other transplantation assays, using thymocytes from three different Lmo2^Tg mice for each cohort. Kaplan–Meier survival and statistical analysis were performed using GraphPad Prism. 6.0 software (GraphPad Software Inc, San Diego CA, USA). […]
derived leukemic cells (%Cd45.2+) in the peripheral blood (PB) of recipients injected with Lmo2 Tg primary leukemias (T-ALL 582, n=5/cohort; T-ALL 273, n=7/cohort; T-ALL 249, n=5/cohort) treated with Dynole 34-2, VXL or combination therapy. […]

[3] = test system: pSTAT5 and pERK in AML01-307 and AML18 patient-derived cells; test: pSTAT5 and pERK in AML01-307 and AML18 cells harvested from treated recipients; assay type: in vivo, human
Method: Phosphoflow analysis was performed as previously described. Briefly, 2 × 10^6 cells stained for surface markers were subsequently resuspended into PBS 1× + 4% v/v paraformaldehyde and incubated for 10 min at 4 °C for fixation. Fixed cells were washed twice using PBS 1×, then resuspended in pre-chilled at −20 °C Perm Buffer III (BD Pharmingen) and incubated 30 min at 4 °C for permeabilization. Cells were washed twice using PBS 1× and incubated overnight at 4 °C in PBS 1× + 2% v/v fetal calf serum (FCS) with Cell Signalling purified antibodies (Genesearch Pty Ltd, Arundel QLD, Australia) against pSTAT5 (Tyr694; #9359), phospho-p38 MAPK (Thr180/Tyr182; #4511), phospho-p44/42 (Erk1/2; #9102), phospho-S6 (Ser235/236; #4856) and phospho-Akt (Ser473; #9271) or isotype control. For intracellular HES1 detection, cells stained for surface markers were subsequently fixed and permeabilized using the BD Cytofix/Cytoperm^TM Kit and incubated overnight at 4 °C in PBS 1× + 2% v/v FCS with a purified antibody against HES1 (D6PU; #11988, Cell Signalling) or isotype control. After staining with primary antibodies for phosphoflow or intracellular detection, cells were incubated in permeabilization buffer with donkey Alexa Fluor 488-conjugated anti-rabbit secondary antibody (A-21206, lot #1910751, Molecular Probes, Invitrogen) or goat Alexa Fluor 546-conjugated anti-rabbit secondary antibody (A-11035, lot #1904467, Molecular Probes, Invitrogen) for 1 h on ice, and washed twice in PBS 1×. Fluorescence-activated cell sorting (FACS) analysis was performed using LSRII and LSR Fortessa cytometers, following the gating strategies described in Supplementary Fig. 11. Cell sorting was performed with a FACSAria or BD Influx.
Patient-derived xenograft models were established as previously described[97],[98]. […] For transplantation assays, 10^6 splenocytes harvested from successfully engrafted primary human ETP-ALL or T-ALL xenografts were injected into nonobese diabetic/severe combined immunodeficient (NOD.Cg-Prkdc^scid, also termed NOD/SCID) or NOD/SCID/Il2rg^tm1wjl/SzJ (NSG) mice[99]. Moreover, 1.5 × 10^6 cells splenocytes harvested from successfully engrafted patient-derived AML xenografts were injected into nonobese diabetic/severe immunodeficient (NOD.Cg-Rag1^tm1MomIl2rg^tm1wjl/SzJ, also termed NRG) mice expressing human IL-3, human GM-CSF and human SCF from the SGM3 triple transgene (NRGS)[100]. Engraftment into recipients was monitored by FACS analysis of peripheral blood as previously described. […] The in vivo efficacy of Dynole 34-2 was assessed 24 h after the last injection by FACS analysis and immunohistochemistry as described in Supplementary Methods. […]
assessed by flow cytometry. […]

## CCCCCCCCNC(=O)C(C#N)=Cc1cn(CCCN(C)C)c2ccccc12 [Dynole 34-2, 2-Cyano-N-octyl-3-(1-(3-dimethylaminopropyl)-1H-indol-3-yl)-acrylamide]
[1]
  Hes1 (MFI): 18345 MFI and 12543 MFI and 14751 MFI and 12961 MFI
  Notch1 (MFI): 16352 MFI and 11570 MFI and 16901 MFI and 11730 MFI
[2]; recipients of primary T-ALL 249
  Time to leukemia: 3.7 weeks and 3 weeks and 3.4 weeks
[2]; recipients of primary T-ALL 582
  Time to leukemia: 4.1 weeks and 5.6 weeks and 5.7 weeks and 6 weeks and 6.3 weeks
[3]; PDX AML01-307
  pERK (MFI) in human CD45+ cells: 2273 MFI and 2265 MFI and 2049 MFI
  pSTAT5 (MFI) in human CD45+ cells: 8952 MFI and 11167 MFI and 9167 MFI
[3]; PDX AML18
  pERK (MFI) in human CD45+ cells: 5026 MFI and 5676 MFI and 5643 MFI and 5242 MFI and 5439 MFI and 6959 MFI
  pSTAT5 (MFI) in human CD45+ cells: 4926 MFI and 5695 MFI and 4653 MFI
